Experimental data taken from patent US20050234043A1, “ACE inhibitor-vasopressin antagonist combinations” (priority 2000, published 2005).
Counter-ions that a name gives are not always drawn.

Columns and labels:
[1] = test system: AVP-induced pressor response (V1A antagonism); test: Antagonism of AVP-induced pressor response, oral, rats; format: in vivo
[2] = test system: AVP-induced pressor response (V1A antagonism); test: Antagonism of AVP-induced pressor response, IV, dogs; format: in vivo
[3] = test system: urinary output (V2 antagonism); test: Urinary output and osmolality in conscious dogs; format: in vivo
[4] = test system: dogs with heart failure induced by rapid right ventricular pacing; test: Heart failure induced by rapid right ventricular pacing; format: in vivo; conditions: IV 0.1 mg/kg
[5] = Oral pharmacokinetics in rat; format: in vivo
Text: (§1) There is a marked food effect with absorption reduced by >50% in dogs after a meal.

[6] = Oral pharmacokinetics in dog; format: in vivo
Text: as §1

dogs [7] = test: 2- and 13-week oral toxicity studies in dogs; format: in vivo
rats [8] = test: Reproductive performance / fertility studies in rats; format: in vivo
rats [9] = test: Teratogenicity in rats; format: in vivo
rabbits = test: Teratogenicity in rabbits; format: in vivo
bacteria = test: Mutagenicity in bacteria; format: cell-based
human lymphocytes = test: Clastogenicity in human lymphocytes in vitro; format: cell-based
bone marrow of rats = test: Clastogenicity in bone marrow of rats; format: in vivo
rats [10] = conditions: rat, in vivo, iv, 2.5 mg/kg
dogs [11] = conditions: dog, in vivo, iv, 2 mg/kg
[12] = test system: AVP-induced platelet aggregation (V1A antagonist activity); test: AVP-induced platelet aggregation in Phase 1 subjects; format: in vivo, human; conditions: 20 mg/day orally or 2.5 mg IV
[13] = test system: AVP-induced dermal vasoconstriction; test: AVP-induced dermal vasoconstriction in Phase 1 subjects; format: in vivo, human; conditions: 50 mg IV
[14] = test system: aquaretic action (V2-receptor antagonism); test: Aquaretic action in normal subjects; format: in vivo, human
subjects = test: Safety in Phase 1 subjects; format: in vivo, human
Text: Other adverse events included flushes, a sensation of cold extremities, abdominal complaints, abnormal stools, syncope, dizziness, palpitations, and postural hypotension. Three subjects who received YM087 and one subject who received placebo developed minor, reversible leukopenia. […] These observations were considered related to antagonism of V2 receptors and not a safety concern. Vital signs (blood pressure and heart rate) were unaffected by YM087.

[15] = test system: patients with NYHA Class III/IV heart failure; test: Double-blind placebo-controlled IV dose-response study of cardiopulmonary hemodynamics in NYHA Class III/IV heart failure patients on ACE inhibitor background; format: in vivo, human; conditions: CHF patients
Protocol: These patients have advanced CHF/LV dysfunction. Patients must be receiving background therapy of diuretics, ACE inhibitors, and optionally digoxin and/or β-blocker; patients will be stratified as to whether they are receiving concomitant β-blocker treatment. […] Patients should take their daily dose of concomitant heart failure medications within 2 hours of catheter insertion. No additional doses of background heart failure medications should be administered during the study treatment phase. After insertion of a balloon-floatation pulmonary artery catheter, serial measurements will be obtained over an 8- to 18-hour baseline and stabilization period. […] The mean baseline PCWP in this study group was 24.2 mmHg. The mean baseline CI was 2.1 L/min/m^2. […] Fluid intake will be restricted to 250 mL every 2 hours (except at time of IV infusion) from time of insertion of Swan-Ganz catheter and throughout the treatment period. […] Serum electrolytes, BUN, creatinine, and serum osmolality will be measured at baseline and 4 and 12 hours posttreatment. Clinical laboratory and vasopressin plasma levels will be measured at baseline and 12 hours postdrug administration. […] Patients meeting baseline eligibility criteria (CI≦2.6 L/min/m^2; PCWP≧16 mmHg) on successive readings at least 30 minutes apart during 2 hours prior to study drug administration will enter the treatment phase. […] Clinical laboratory and vasopressin plasma levels will be measured 12 hours postdose. […] Serum electrolytes, BUN, creatinine, serum osmolality will be measured at 4 and 12 hours posttreatment. […] For this study, hemodynamic efficacy parameters of PCWP, CI, SVR, and PVR will be evaluated in terms of their response profile. The response profile will be assessed in terms of peak change, and AUC delimited by the parameter change from baseline and measurement times. […] If measurements are missing at certain times, the AUC will be calculated using all other available observations. Dose response over the treatment groups will be assessed for selected measures. […]

rats [16] = conditions: female rats, 13-week repeated oral dose
[17] = Pharmacokinetics in healthy subjects (Phase 1); conditions: human

## Cc1nc2c([nH]1)-c1ccccc1N(C(=O)c1ccc(NC(=O)c3ccccc3-c3ccccc3)cc1)CC2 [YM087, N-[4-(2-methyl-,4,5,6-tetrahydrornidazo[4,5-d][1]benzazepin-6-ylcarbonyl)phenyl]biphenyl-2-carboxamide hydrochloride]
[1]
  dose that reduced the AVP response by 50% (ID50): 0.32 mg/kg
[2]
  ID50, AVP-induced pressor response: 0.026 mg/kg
[3]; conscious dogs, oral 0.03 to 0.3 mg/kg, dose-related
  urinary output: increased urinary output
[3]; conscious dogs, oral 0.03 to 0.3 mg/kg, reduced from 1500
  urinary osmolality: < 100 mOsm/kg H2O
[3]; unlike furosemide
  effect on urinary sodium (Na) or potassium (K) excretion: little or no effect
[4]
  cardiac function: significantly improved the depressed cardiac function
  diuresis: produced a water diuresis
[5]
  time to peak concentrations: 0.5 h
[6]
  time to peak concentrations: 1 h
Dogs [7]; affected dogs, 13-week study
  peripheral blood counts: Decreased peripheral erythrocyte, leukocyte, and/or platelet counts
Dogs [7]; dogs
  reversibility of bone marrow and peripheral blood changes: reversible
Dogs [7]; dogs, 2- and 13-week oral studies
  bone marrow histopathology: Histopathologic changes in bone marrow were observed
Rats [8]; female rats, 100 mg/kg orally for 2 weeks prior to mating with untreated males
  female fertility: reduced fertility index, increased implantation loss, and decreased live fetuses
Rats [8]; male rats
  reproductive performance of male rats: did not affect
Rats [9]
  teratogenicity: not teratogenic
rabbits
  teratogenicity: not teratogenic
bacteria
  mutagenicity: not mutagenic
Human lymphocytes
  clastogenicity: not clastogenic
Bone marrow of rats
  clastogenicity: not clastogenic
Rats [10]
  toxicity: No toxicity was observed
Dogs [11]
  toxicity: No toxicity was observed
[12]
  AVP-induced platelet aggregation: Inhibition
[13]
  AVP-induced dermal vasoconstriction: Total inhibition
[14]; IV 50 mg/day
  duration of increased urine production rate postdosing: ≤ 6 h
[14]; IV doses up to 250 μg/kg
  duration of increased urine production rate postdosing: up to 3 hours
[14]; normal subjects, 120 mg QD or 60 mg BID orally or 50 mg IV
  tolerability of aquaretic effects: too uncomfortable in normal subjects to be tolerable
[14]; normal subjects, IV
  dose at which aquaretic action with decrease in urine osmolarity starts: 0.05 mg/kg
[14]; normal subjects, oral
  dose at which aquaretic action with decrease in urine osmolarity starts: 15 mg
subjects; approximately 250 subjects treated
  overall safety: no major safety concerns were identified
subjects; at higher doses, with or without an increase in plasma sodium
  urinary and plasma osmolarity: urinary osmolarity decreased and plasma osmolarity increased
subjects; human, in vivo
  biochemical or hematological laboratory parameters: No drug-related trend was observed
  vital signs (blood pressure and heart rate): unaffected
subjects; one patient with severe CHF, 80 mg/day for 4 days, relation to study drug could not be excluded
  serious adverse event: generalized tonic clonic seizure
subjects; one subject on placebo also
  number of subjects who developed minor, reversible leukopenia: Three
subjects; regardless of treatment association
  most frequent adverse events: mild or moderate thirst and mild headache
[15]; IV 10, 20 or 40 mg, 85% receiving ACE inhibitor, FIG. 1
  pulmonary capillary wedge pressure (PCWP): significant reductions
[15]; IV 10, 20 or 40 mg, 85% receiving ACE inhibitor, FIG. 2
  right atrial pressure (RAP): significant reduction
[15]; add-on to normal treatment with ACE inhibitors
  hemodynamic effect as add-on therapy to ACE inhibitors: surprisingly favorable hemodynamic effect
Rats [16]
  uterine weights: decreased at all doses
[17]; plasma
  half-life: 4 to 5 h
[17]; plasma, oral
  bioavailability: 43 to 59%
[17]; plasma, po
  Tmax: ~1 h
[17]; repeated BID oral doses, 60 mg
  plasma levels on repeated dosing: unexpectedly high plasma levels after the second dose
